Patent publication US20200319201A1, “METHODS FOR MONITORING TUBERCULOSIS MEDICATION” (priority 2017, published 2020)

Experiment: Liquid chromatography mass spectrometry analysis of fingerprint sweat samples for Tuberculosis medication and metabolite
Format: in vivo, human
Conditions: for percentage of fingerprint samples in which detected: 75 samples; for number of fingerprint samples in which detected (of 25 fingerprints): 5 subjects who had finished a course of Isoniazid at least 72 hours previously
Experimental: All subjects from whom fingerprint samples were taken were human. Fingerprints were taken from the five fingers (i.e. the four fingers and the thumb) of each subject's right hand: • without the hand having been washed; or • after the hand has been washed with soap and water, and covered with a clean surgical glove for 10 minutes, without contacting any other surface.
The chromatography paper with fingerprint samples thereon were placed in a 2 ml Eppendorf microcentrifuge tube, following which an extraction solution (1.5 ml of 10% dichloromethane in methanol) was added. The tube was then centrifuged for 2 min (at 9.5 centrifugal force). The solvent extract was evaporated to dryness under a stream of nitrogen at room temperature (20° C.) and reconstituted in 100 μl mobile phase solution (95:5 water/acetonitrile+0.1% formic acid+iosotopically labelled internal standards) before being vortexed and transferred to a 300 μl glass micro-insert vial, with 5 μl being injected onto an LC-MS/MS system.
Chromatographic separation was performed on a Thermo Scientific™ Ultimate3000 UHPLC system equipped with a binary solvent manager, column manager and autosampler. The injection volume was 5 μL. Separation was performed on a Kinetex XB-C18 column (100×2.1 mm, 5 μm) operated at 30° C. at a flow rate of 0.25 ml/min. Mobile phase comprises 95% H2O (0.1% formic acid) and 5% acetonitrile (ACN) (0.1% formic acid).
The prepared samples were introduced to a Thermo Orbitrap Q-Exactive Plus mass spectrometer using the standard ESI interface with a capillary temperature of 320° C. and spray voltage 3 kV. Positive mass spectra were acquired in full scan mode within a range of m/z 50-500 at a mass resolution of 70 000 at m/z 200.

[1] = after washing hands using soap and water, same subjects as Example 1, isoniazid 300 mg (one 400 mg)
[2] = after washing hands using soap and water, same subjects as Example 1
[3] = hands not washed, approximately 3 hours after 300 mg isoniazid (one subject 400 mg), 15 subjects
[4] = hands not washed, approximately 3 hours after 300 mg isoniazid (one subject 400 mg)
[5] = hands washed using soap and water
[6] = sample obtained 2 hours after the subject had taken Isoniazid
[7] = sample obtained 72 hours after the subject had taken Isoniazid

## NC(=O)c1cnccn1 [pyrazinamide, Pyrazinamide]
Approximately 3 hours after 1,000 mg pyrazinamide, hands washed
  presence in fingerprint sample: presence of pyrazinamide is evidenced

## NNC(=O)c1ccncc1 [Isoniazid]
[1]
  number of fingerprint samples in which detected (out of the 75 fingerprint samples): 40
[2]
  percentage of fingerprint samples in which detected: 53%
Hands not washed
  number of fingerprint samples in which detected (of 25 fingerprints): 0
[3]
  number of fingerprint samples in which detected (out of the 75 fingerprint samples): 51
[4]
  percentage of fingerprint samples in which detected: 68%
[5]
  number of fingerprint samples in which detected (of 25 fingerprints): 0
[6]
  presence in fingerprint sweat sample: shows the presence
[7]
  presence in fingerprint sweat sample: does not show the presence

## CC(=O)NNC(=O)c1ccncc1 [Acetylisoniazid]
[1]
  number of fingerprint samples in which detected (out of the 75 fingerprint samples): 72
[2]
  percentage of fingerprint samples in which detected: 96%
Hands not washed
  number of fingerprint samples in which detected (of 25 fingerprints): 0
[3]
  number of fingerprint samples in which detected (out of the 75 fingerprint samples): 73
[4]
  percentage of fingerprint samples in which detected: 97%
[5]
  number of fingerprint samples in which detected (of 25 fingerprints): 0
[6]
  presence in fingerprint sweat sample: shows the presence
[7]
  presence in fingerprint sweat sample: does not show the presence
